Reference: patent US20060263802A1 (priority 2003, published 2006)

How the values were obtained:
Assay type in all cases: binding
[1] = tested on: human monoclonal antibody CRJA
[2] = tested on: human monoclonal antibody CRJA; remark: listed apart in the source
[3] = tested on: human monoclonal antibody CR57
[4] = tested on: human monoclonal antibody CRJB
[5] = tested on: human monoclonal antibody CRJB; remark: listed apart in the source
[6] = tested on: human monoclonal antibody CR57; remark: listed apart in the source

IYTILDKLGPWSPID
Binding of CRJA to linear peptide (PEPSCAN-ELISA signal) [1]: 83
Binding of CRJA (10 μg/ml) to looped/cyclic peptide (PEPSCAN-ELISA signal) [2]: 78
Binding of CR57 (10 μg/ml) to looped/cyclic peptide (PEPSCAN-ELISA signal) [3]: 66
Binding of CRJB to linear peptide (PEPSCAN-ELISA signal) [4]: 97
Binding of CRJB (10 μg/ml) to looped/cyclic peptide (PEPSCAN-ELISA signal) [5]: 58
Binding of CR57 to linear peptide (PEPSCAN-ELISA signal) [6]: 44

KAYTIFNKTLMEADA
Binding of CRJA to linear peptide (PEPSCAN-ELISA signal) [1]: 76
Binding of CRJA (10 μg/ml) to looped/cyclic peptide (PEPSCAN-ELISA) [2]: 104
Binding of CR57 (10 μg/ml) to looped/cyclic peptide (PEPSCAN-ELISA) [3]: 137
Binding of CRJB to linear peptide (PEPSCAN-ELISA signal) [4]: 123
Binding of CRJB (10 μg/ml) to looped/cyclic peptide (PEPSCAN-ELISA) [5]: 92
Binding of CR57 to linear peptide (PEPSCAN-ELISA signal) [6]: 101

KCSGVAVSSTYCSTN
Binding of CRJA to linear peptide (PEPSCAN-ELISA signal) [1]: 111
Binding of CRJA (10 μg/ml) to looped/cyclic peptide (PEPSCAN-ELISA signal) [2]: 78
Binding of CR57 (10 μg/ml) to looped/cyclic peptide (PEPSCAN-ELISA signal) [3]: 101
Binding of CRJB to linear peptide (PEPSCAN-ELISA signal) [4]: 130
Binding of CRJB (10 μg/ml) to looped/cyclic peptide (PEPSCAN-ELISA signal) [5]: 83
Binding of CR57 to linear peptide (PEPSCAN-ELISA signal) [6]: 88

KDGDEAEDFVEVHLP
Binding of human monoclonal antibody CRJA to linear peptide (PEPSCAN-ELISA signal) [1]: 62
Binding of CRJA to looped/cyclic peptide (PEPSCAN-ELISA signal) [2]: 42
Binding of CR57 to looped/cyclic peptide (PEPSCAN-ELISA signal) [3]: 71
Binding of human monoclonal antibody CRJB to linear peptide (PEPSCAN-ELISA signal) [4]: 93
Binding of CRJB to looped/cyclic peptide (PEPSCAN-ELISA signal) [5]: 71
Binding of human monoclonal antibody CR57 to linear peptide (PEPSCAN-ELISA signal) [6]: 72

KESLVIISPSVADLD
Binding of CRJA to linear peptide (PEPSCAN-ELISA signal) [1]: 123
Binding of CRJA (10 μg/ml) to looped/cyclic peptide (PEPSCAN-ELISA signal) [2]: 83
Binding of CR57 (10 μg/ml) to looped/cyclic peptide (PEPSCAN-ELISA signal) [3]: 86
Binding of CRJB to linear peptide (PEPSCAN-ELISA signal) [4]: 117
Binding of CRJB (10 μg/ml) to looped/cyclic peptide (PEPSCAN-ELISA signal) [5]: 85
Binding of CR57 to linear peptide (PEPSCAN-ELISA signal) [6]: 86

KFPIYTILDKLGPWS
Binding of CRJA to linear peptide (PEPSCAN-ELISA signal) [1]: 65
Binding of CRJA (10 μg/ml) to looped/cyclic peptide (PEPSCAN-ELISA signal) [2]: 43
Binding of CR57 (10 μg/ml) to looped/cyclic peptide (PEPSCAN-ELISA signal) [3]: 72
Binding of CRJB to linear peptide (PEPSCAN-ELISA signal) [4]: 97
Binding of CRJB (10 μg/ml) to looped/cyclic peptide (PEPSCAN-ELISA signal) [5]: 64
Binding of CR57 to linear peptide (PEPSCAN-ELISA signal) [6]: 71

KGACKLKLCGVLGLR
Binding of CRJA to linear peptide (PEPSCAN-ELISA signal) [1]: 50
Binding of CRJA (10 μg/ml) to looped/cyclic peptide (PEPSCAN-ELISA) [2]: 50
Binding of CR57 (10 μg/ml) to looped/cyclic peptide (PEPSCAN-ELISA) [3]: 78
Binding of CRJB to linear peptide (PEPSCAN-ELISA signal) [4]: 111
Binding of CRJB (10 μg/ml) to looped/cyclic peptide (PEPSCAN-ELISA) [5]: 60
Binding of CR57 to linear peptide (PEPSCAN-ELISA signal) [6]: 181
binding of antibody CR57 to linear peptide (PEPSCAN OD) [6]: bound

KGCLRVGGRCHPHVN
Binding of CRJA to linear peptide (PEPSCAN-ELISA signal) [1]: 108
Binding of CRJA (10 μg/ml) to looped/cyclic peptide (PEPSCAN-ELISA) [2]: 102
Binding of CR57 (10 μg/ml) to looped/cyclic peptide (PEPSCAN-ELISA) [3]: 65
Binding of CRJB to linear peptide (PEPSCAN-ELISA signal) [4]: 130
Binding of CRJB (10 μg/ml) to looped/cyclic peptide (PEPSCAN-ELISA) [5]: 91
Binding of CR57 to linear peptide (PEPSCAN-ELISA signal) [6]: 68

KGSETCGFVDERGLY
Binding of CRJA to linear peptide (PEPSCAN-ELISA signal) [1]: 100
Binding of CRJA (10 μg/ml) to looped/cyclic peptide (PEPSCAN-ELISA) [2]: 71
Binding of CR57 (10 μg/ml) to looped/cyclic peptide (PEPSCAN-ELISA) [3]: 111
Binding of CRJB to linear peptide (PEPSCAN-ELISA signal) [4]: 97
Binding of CRJB (10 μg/ml) to looped/cyclic peptide (PEPSCAN-ELISA) [5]: 72
Binding of CR57 to linear peptide (PEPSCAN-ELISA signal) [6]: 90

KHFRPTPDACRAAYN
Binding of CRJA to linear peptide (PEPSCAN-ELISA signal) [1]: 85
Binding of CRJA (10 μg/ml) to looped/cyclic peptide (PEPSCAN-ELISA signal) [2]: 41
Binding of CR57 (10 μg/ml) to looped/cyclic peptide (PEPSCAN-ELISA signal) [3]: 70
Binding of CRJB to linear peptide (PEPSCAN-ELISA signal) [4]: 112
Binding of CRJB (10 μg/ml) to looped/cyclic peptide (PEPSCAN-ELISA signal) [5]: 72
Binding of CR57 to linear peptide (PEPSCAN-ELISA signal) [6]: 73

KLCGVLGLRLMDGTW
Binding of CRJA to linear peptide (PEPSCAN-ELISA signal) [1]: 96
Binding of CRJA (10 μg/ml) to looped/cyclic peptide (PEPSCAN-ELISA) [2]: 82
Binding of CR57 (10 μg/ml) to looped/cyclic peptide (PEPSCAN-ELISA) [3]: 120
Binding of CRJB to linear peptide (PEPSCAN-ELISA signal) [4]: 132
Binding of CRJB (10 μg/ml) to looped/cyclic peptide (PEPSCAN-ELISA) [5]: 68
Binding of CR57 to linear peptide (PEPSCAN-ELISA signal) [6]: 3152
binding of antibody CR57 to linear peptide (PEPSCAN OD) [6]: bound
strength of binding of CR57 (OD value compared with the other peptides / twice the average value) [6]: most prominent

KLGPWSPIDIHHLSC
Binding of CRJA to linear peptide (PEPSCAN-ELISA signal) [1]: 72
Binding of CRJA (10 μg/ml) to looped/cyclic peptide (PEPSCAN-ELISA signal) [2]: 85
Binding of CR57 (10 μg/ml) to looped/cyclic peptide (PEPSCAN-ELISA signal) [3]: 97
Binding of CRJB to linear peptide (PEPSCAN-ELISA signal) [4]: 105
Binding of CRJB (10 μg/ml) to looped/cyclic peptide (PEPSCAN-ELISA signal) [5]: 65
Binding of CR57 to linear peptide (PEPSCAN-ELISA signal) [6]: 72

KLKLCGVLGLRLMDG
Binding of CRJA to linear peptide (PEPSCAN-ELISA signal) [1]: 101
Binding of CRJA (10 μg/ml) to looped/cyclic peptide (PEPSCAN-ELISA) [2]: 79
Binding of CR57 (10 μg/ml) to looped/cyclic peptide (PEPSCAN-ELISA) [3]: 13
Binding of CRJB to linear peptide (PEPSCAN-ELISA signal) [4]: 120
Binding of CRJB (10 μg/ml) to looped/cyclic peptide (PEPSCAN-ELISA) [5]: 63
Binding of CR57 to linear peptide (PEPSCAN-ELISA signal) [6]: 273
binding of antibody CR57 to linear peptide (PEPSCAN OD) [6]: bound

KLVPGFGKAYTIFNK
Binding of CRJA to linear peptide (PEPSCAN-ELISA signal) [1]: 73
Binding of CRJA (10 μg/ml) to looped/cyclic peptide (PEPSCAN-ELISA) [2]: 71
Binding of CR57 (10 μg/ml) to looped/cyclic peptide (PEPSCAN-ELISA) [3]: 54
Binding of CRJB to linear peptide (PEPSCAN-ELISA signal) [4]: 114
Binding of CRJB (10 μg/ml) to looped/cyclic peptide (PEPSCAN-ELISA) [5]: 71
Binding of CR57 to linear peptide (PEPSCAN-ELISA signal) [6]: 47

KMAGDPRYEESLHNP
Binding of CRJA to linear peptide (PEPSCAN-ELISA signal) [1]: 48
Binding of CRJA (10 μg/ml) to looped/cyclic peptide (PEPSCAN-ELISA signal) [2]: 38
Binding of CR57 (10 μg/ml) to looped/cyclic peptide (PEPSCAN-ELISA signal) [3]: 49
Binding of CRJB to linear peptide (PEPSCAN-ELISA signal) [4]: 102
Binding of CRJB (10 μg/ml) to looped/cyclic peptide (PEPSCAN-ELISA signal) [5]: 45
Binding of CR57 to linear peptide (PEPSCAN-ELISA signal) [6]: 62
